Results published in the supplement of paper PMC9663587.

How the values were obtained:
ABT-737 = compound: CN(C)CC[C@H](CSc1ccccc1)Nc1ccc(S(=O)(=O)NC(=O)c2ccc(N3CCN(Cc4ccccc4-c4ccc(Cl)cc4)CC3)cc2)cc1[N+](=O)[O-] [ABT-737]
Alpelisib/BYL719 = compound: Cc1nc(NC(=O)N2CCC[C@H]2C(N)=O)sc1-c1ccnc(C(C)(C)C(F)(F)F)c1 [Alpelisib/BYL719]
Cabozantinib = compound: COc1cc2nccc(Oc3ccc(NC(=O)C4(C(=O)Nc5ccc(F)cc5)CC4)cc3)c2cc1OC [Cabozantinib]
LEE011/Ribociclib = compound: CN(C)C(=O)c1cc2cnc(Nc3ccc(N4CCNCC4)cn3)nc2n1C1CCCC1 [LEE011/Ribociclib]
[1] = compound: COc1ccc2c(c1)[C@]1(C[C@H]1c1ccc3c(/C=C/c4ccc(CN5C[C@@H](C)O[C@@H](C)C5)cc4)n[nH]c3c1)C(=O)N2
Ipatasertib/GDC0068 = compound: CC(C)NC[C@@H](C(=O)N1CCN(c2ncnc3c2[C@H](C)C[C@H]3O)CC1)c1ccc(Cl)cc1 [Ipatasertib/GDC0068]
[2] = compound: CCCCOc1c(C(=O)c2c(F)cc(C)cc2F)c[nH]c2nncc1-2
Neratinib/HKI272 = compound: CCOc1cc2ncc(C#N)c(Nc3ccc(OCc4ccccn4)c(Cl)c3)c2cc1NC(=O)/C=C/CN(C)C [Neratinib/HKI272]
R0-3306 = compound: C1=CC2=C(C=CC(=C2)C=C3C(=O)NC(=NCC4=CC=CS4)S3)N=C1 [R0-3306]
AZD5363 = compound: NC1(C(=O)N[C@@H](CCO)c2ccc(Cl)cc2)CCN(c2nc[nH]c3nccc2-3)CC1 [AZD5363]
THZ-P1-2 = compound: CN(C)C/C=C/C(=O)NC1=CC=C(C=C1)C(=O)NC2=CC=CC(=C2)NC3=NC=NC(=C3)C4=CNC5=CC=CC=C54 [THZ-P1-2]
Volasertib/BI6727 = compound: CC[C@@H]1C(=O)N(C)c2cnc(Nc3ccc(C(=O)N[C@H]4CC[C@H](N5CCN(CC6CC6)CC5)CC4)cc3OC)nc2N1C(C)C [Volasertib/BI6727]
BSJ-03-123 = compound: CC(=O)c1c(C)c2cnc(Nc3ccc(N4CCN(CCOCCOCCOCCNC(=O)COc5cccc6c5C(=O)N(C5CCC(=O)NC5=O)C6=O)CC4)cn3)nc2n(C2CCCC2)c1=O [BSJ-03-123]
AZD1775 = compound: C=CCn1c(=O)c2cnc(Nc3ccc(N4CCN(C)CC4)cc3)nc2n1-c1cccc(C(C)(C)O)n1 [AZD1775]
[3] = compound: CCN1CCN(Cc2ccc(Nc3ncc(F)c(-c4cc(F)c5nc(C)n(C(C)C)c5c4)n3)nc2)CC1
[4] = compound: CO[C@@H](C)Cn1c(=O)n(C)c2cnc3ccc(-c4cncc(C(C)(C)O)c4)cc3c21
AZD7762 = compound: NC(=O)Nc1cc(-c2cccc(F)c2)sc1C(=O)N[C@H]1CCCNC1 [AZD7762]
Dasatinib = compound: Cc1nc(Nc2ncc(C(=O)Nc3c(C)cccc3Cl)s2)cc(N2CCN(CCO)CC2)n1 [Dasatinib]
[5] = compound: CCC1=CN=CN=C1N2CCN(CC2)CC3=NC4=C(N3)C=C(C=C4)C(F)(F)F
[6] = compound: CC(=O)c1c(C)c2cnc(Nc3ccc(N4CCNCC4)cn3)nc2n(C2CCCC2)c1=O
Doxorubicin = compound: COc1cccc2c1C(=O)c1c(O)c3c(c(O)c1C2=O)C[C@@](O)(C(=O)CO)C[C@@H]3O[C@H]1C[C@H](N)[C@H](O)[C@H](C)O1 [Doxorubicin]
Olaparib/AZD2281 = compound: O=C(c1cc(Cc2n[nH]c(=O)c3ccccc23)ccc1F)N1CCN(C(=O)C2CC2)CC1 [Olaparib/AZD2281]
[7] = compound: CCc1cnn2c(NCc3ccc[n+]([O-])c3)cc(N3CCCC[C@H]3CCO)nc12
Luminespib/NVP-AUY922 = compound: CCNC(=O)c1noc(-c2cc(C(C)C)c(O)cc2O)c1-c1ccc(CN2CCOCC2)cc1 [Luminespib/NVP-AUY922]
[8] = compound: CC(=O)Nc1cccc(-n2c(=O)n(C3CC3)c(=O)c3c(Nc4ccc(I)cc4F)n(C)c(=O)c(C)c32)c1
Vorinostat = compound: O=C(CCCCCCC(=O)Nc1ccccc1)NO [Vorinostat]
Taselisib/GDC0032 = compound: Cc1nc(-c2cn3c(n2)-c2ccc(-c4cnn(C(C)(C)C(N)=O)c4)cc2OCC3)n(C(C)C)n1 [Taselisib/GDC0032]
SHP099 = compound: CC1(CCN(CC1)C2=CN=C(C(=N2)N)C3=C(C(=CC=C3)Cl)Cl)N [SHP099]
THZ1 = compound: CN(C)C/C=C/C(=O)Nc1ccc(C(=O)Nc2cccc(Nc3ncc(Cl)c(-c4c[nH]c5ccccc45)n3)c2)cc1 [THZ1]
Saracatinib/AZD0530 = compound: CN1CCN(CCOc2cc(OC3CCOCC3)c3c(Nc4c(Cl)ccc5c4OCO5)ncnc3c2)CC1 [Saracatinib/AZD0530]
AZD2014 = compound: CNC(=O)c1cccc(-c2ccc3c(N4CCOC[C@@H]4C)nc(N4CCOC[C@@H]4C)nc3n2)c1 [AZD2014]
Torin2 = compound: C1=CC(=CC(=C1)N2C(=O)C=CC3=CN=C4C=CC(=CC4=C32)C5=CN=C(C=C5)N)C(F)(F)F [Torin2]
Flavopiridol = compound: CN1CC[C@H](c2c(O)cc(O)c3c(=O)cc(-c4ccccc4Cl)oc23)[C@H](O)C1 [Flavopiridol]
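Also: breast cancer and non-malignant breast epithelial cell lines, Deep Dye Drop or Dye Drop imaging, nine half-log doses, GR normalized to time-zero plates and DMSO-only controls.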

Row | Cell Line | GR50, 72 h (ABT-737) | GR50, 72 h (Alpelisib/BYL719) | GR50, 72 h (Cabozantinib) | GR50, 72 h (LEE011/Ribociclib) | GR50, 72 h [1] | GR50, 72 h (Ipatasertib/GDC0068) | GR50, 72 h [2] | GR50, 72 h (Neratinib/HKI272) | GR50, 72 h (R0-3306) | GR50, 72 h (AZD5363) | GR50, 72 h (THZ-P1-2) | GR50, 72 h (Volasertib/BI6727) | GR50, 72 h (BSJ-03-123) | GR50, 72 h (AZD1775) | GR50, 72 h [3] | GR50, 72 h [4] | GR50, 72 h (AZD7762) | GR50, 72 h (Dasatinib) | GR50, 72 h [5] | GR50, 72 h [6] | GR50, 72 h (Doxorubicin) | GR50, 72 h (Olaparib/AZD2281) | GR50, 72 h [7] | GR50, 72 h (Luminespib/NVP-AUY922) | GR50, 72 h [8] | GR50, 72 h (Vorinostat) | GR50, 72 h (Taselisib/GDC0032) | GR50, 72 h (SHP099) | GR50, 72 h (THZ1) | GR50, 72 h (Saracatinib/AZD0530) | GR50, 72 h (AZD2014) | GR50, 72 h (Torin2) | GR50, 72 h (Flavopiridol)
1 | MCF7 | > 10 µM | 0.585 µM | 4.82 µM | 0.185 µM | 0.00197 µM | 1.3 µM | 0.00767 µM | 1.26 µM | 6.26 µM | > 10 µM | 3.65 µM | 0.00287 µM | 1.42 µM | 0.0111 µM | 0.0236 µM | < 0.001 µM | 0.0414 µM | 0.0694 µM | > 10 µM | 0.075 µM | 0.0161 µM | > 10 µM | 0.00831 µM | 0.00871 µM | > 1 µM | 0.542 µM | 0.00836 µM | > 10 µM | 0.0224 µM | 0.577 µM | < 0.001 µM | 0.00456 µM | 0.0847 µM
2 | MCF10A | > 10 µM | > 10 µM | > 10 µM | > 10 µM | 0.00588 µM | > 10 µM | 0.504 µM | 0.102 µM | 5.9 µM | > 10 µM | 7 µM | 0.0221 µM | 1.09 µM | 6.21 µM | 0.34 µM | 0.163 µM | 1.81 µM | 0.709 µM | > 10 µM | 1.95 µM | 0.0108 µM | > 10 µM | 0.0162 µM | 0.00762 µM | 0.00336 µM | 2.53 µM | 0.119 µM | > 10 µM | 0.0723 µM | 4.83 µM | 0.473 µM | 0.032 µM | 0.152 µM
3 | MCF12A | > 10 µM | > 10 µM | > 10 µM | > 10 µM | 0.0103 µM | > 10 µM | 7.57 µM | 0.422 µM | 9.7 µM | > 10 µM | 8.04 µM | 0.0519 µM | 5.35 µM | 1.92 µM | 5.94 µM | 0.167 µM | 0.129 µM | 0.209 µM | > 10 µM | > 3.16 µM | 0.0155 µM | > 10 µM | 0.0371 µM | 0.0103 µM | 0.00833 µM | 6.67 µM | 1.11 µM | > 10 µM | 0.15 µM | 9.02 µM | 0.0768 µM | 0.0424 µM | 0.38 µM
4 | MDAMB231 | 3.03 µM | > 10 µM | 4.83 µM | 0.995 µM | 0.00366 µM | > 10 µM | 1.16 µM | 1.43 µM | 8.73 µM | > 10 µM | 4.94 µM | 0.00436 µM | 0.731 µM | 0.0633 µM | 0.0468 µM | 0.031 µM | 0.163 µM | 0.0294 µM | > 10 µM | 0.109 µM | 0.00504 µM | > 10 µM | 0.0103 µM | 0.0058 µM | 0.00263 µM | 1.24 µM | 2.2 µM | > 10 µM | 0.0662 µM | 2.33 µM | 0.583 µM | 0.0251 µM | 0.139 µM
5 | MDAMB415 | 7.69 µM | > 10 µM | 6.41 µM | 0.00974 µM | 0.0239 µM | 0.0507 µM | 1.87 µM | 1.65 µM | > 10 µM | 0.0101 µM | 0.0764 µM | 0.0112 µM | 1.36 µM | 1.56 µM | 0.00897 µM | < 0.001 µM | 0.475 µM | 0.236 µM | 8.3 µM | 0.0304 µM | 0.00521 µM | > 10 µM | 0.0203 µM | 0.00909 µM | 0.278 µM | 2.92 µM | 0.293 µM | > 10 µM | 0.0347 µM | 4.22 µM | 0.006 µM | 0.00771 µM | 0.172 µM
6 | MDAMB468 | 6.03 µM | > 10 µM | 8.97 µM | > 10 µM | 0.00342 µM | 2.36 µM | 0.133 µM | 0.158 µM | 4.57 µM | > 10 µM | 3.59 µM | 0.0021 µM | 1.71 µM | 0.25 µM | 2.34 µM | 0.0123 µM | 0.287 µM | 4.41 µM | 4.17 µM | > 3.16 µM | 0.00542 µM | 7.92 µM | 0.0156 µM | 0.00483 µM | 0.442 µM | 1.57 µM | 2.35 µM | > 10 µM | 0.0236 µM | 4.96 µM | 0.523 µM | 0.016 µM | 0.173 µM
7 | MGH312 | 2.19 µM | 6.6 µM | 6.89 µM | > 10 µM | 0.00114 µM | 0.037 µM | 0.00785 µM | 0.168 µM | 5.42 µM | < 0.001 µM | 4.45 µM | 0.00804 µM | 4.41 µM | 1.27 µM | 2.43 µM | < 0.001 µM | 0.202 µM | 0.00371 µM | 4.84 µM | > 3.16 µM | 0.00621 µM | > 10 µM | 0.0108 µM | 0.00379 µM | > 1 µM | 0.799 µM | 0.0386 µM | > 10 µM | 0.00839 µM | 0.133 µM | < 0.001 µM | 0.00596 µM | 0.0997 µM
